Columns and labels:
[1] = thermal decomposition of the acid; cited from earlier work
[2] = nicotine:tartaric acid 1:2; in PG or VG or any mixture of PG and VG at ambient conditions
Description: In some embodiments, acids that have poor solubility in the composition constituents are inappropriate for use in certain embodiments of the compositions herein. […] As used herein, weight percentage (w/w) refers to the weight of the individual component over the weight of the total formulation.

SMILES	decomposition temperature [1] [°C]	concentration at which no solution is produced [2]
O=C(O)CC(O)C(=O)O (stereo not drawn) [malic acid]	150	
CN1CCCC1c1cccnc1.O=C(O)C(O)C(O)C(=O)O (stereo not drawn) [nicotine bitartrate]		< 0.5 % (w/w) nicotine
O=C(O)CC(O)(CC(=O)O)C(=O)O [citric acid]	175	

From US12167744B2, “Nicotine liquid formulations for aerosol devices and methods thereof” (JUUL Labs, Inc., priority 2013, dated 2024)
